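Following 48 hours of exposure in 96-well plates, responses at five concentrations were used to interpolate endpoints linearly. Here, GI50 denotes the concentration required for 50% inhibition of growth.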 The source made the active and inactive calls. No stated cut-off is given here; in the data, active = GI50 up to about 1.1 µM and inactive = higher.
Assays:
Assay in all cases: DTP human tumour cell line panel, 48 h
SR = system: SR
MDA-MB-435 = system: MDA-MB-435
EKVX = system: EKVX
CCRF-CEM = system: CCRF-CEM
NCI-H460 = system: NCI-H460
U-251 = system: U-251
MCF7 = system: MCF7
UACC-62 = system: UACC-62
SK-MEL-2 = system: SK-MEL-2
COLO 205 = system: COLO 205
BT-549 = system: BT-549
RXF 393 = system: RXF 393
PC-3 = system: PC-3
SN12C = system: SN12C
HOP-62 = system: HOP-62
TK-10 = system: TK-10
HOP-92 = system: HOP-92
MDA-MB-231 = system: MDA-MB-231
HCT-116 = system: HCT-116
MDA-N = system: MDA-N
HT-29 = system: HT-29
SNB-19 = system: SNB-19
NCI-H522 = system: NCI-H522
NCI-H226 = system: NCI-H226
OVCAR-8 = system: OVCAR-8
SF-295 = system: SF-295
M14 = system: M14
Hs-578T = system: Hs-578T
SW-620 = system: SW-620
Malme-3M = system: Malme-3M
HCC 2998 = system: HCC 2998
OVCAR-3 = system: OVCAR-3
CAKI-1 = system: CAKI-1
IGROV-1 = system: IGROV-1
SK-MEL-28 = system: SK-MEL-28
UO-31 = system: UO-31
NCI/ADR-RES = system: NCI/ADR-RES
LOX IMVI = system: LOX IMVI
SK-MEL-5 = system: SK-MEL-5
DU-145 = system: DU-145
SF-539 = system: SF-539
A549 = system: A549
OVCAR-4 = system: OVCAR-4
K562 = system: K562
786-0 = system: 786-0
KM12 = system: KM12
SF-268 = system: SF-268
HCT-15 = system: HCT-15
UACC-257 = system: UACC-257
ACHN = system: ACHN
HL-60 = system: HL-60
OVCAR-5 = system: OVCAR-5
NCI-H23 = system: NCI-H23
SNB-75 = system: SNB-75
RPMI-8226 = system: RPMI-8226
T47D = system: T47D
SK-OV-3 = system: SK-OV-3

O=c1oc2ccc([N+](=O)[O-])cc2c(Nc2ccc3c(c2)Sc2ccccc2O3)c1[N+](=O)[O-]
GI50 (SR): 22.5 µM (inactive) | GI50 (MDA-MB-435): 30.8 µM (inactive) | GI50 (EKVX): 25.9 µM (inactive) | GI50 (CCRF-CEM): 18.9 µM (inactive) | GI50 (NCI-H460): 20.2 µM (inactive) | GI50 (U-251): 17.5 µM (inactive) | GI50 (MCF7): 22.1 µM (inactive) | GI50 (UACC-62): 15 µM (inactive) | GI50 (SK-MEL-2): 20.4 µM (inactive) | GI50 (COLO 205): 19.3 µM (inactive) | GI50 (BT-549): 24 µM (inactive) | GI50 (RXF 393): 22.4 µM (inactive) | GI50 (PC-3): 19.5 µM (inactive) | GI50 (SN12C): 20 µM (inactive) | GI50 (HOP-62): 21.3 µM (inactive) | GI50 (TK-10): 27.4 µM (inactive) | GI50 (HOP-92): 16.3 µM (inactive) | GI50 (MDA-MB-231): 18.6 µM (inactive) | GI50 (HCT-116): 15.8 µM (inactive) | GI50 (MDA-N): 28.6 µM (inactive) | GI50 (HT-29): 27.2 µM (inactive) | GI50 (SNB-19): 17.9 µM (inactive) | GI50 (NCI-H522): 17.6 µM (inactive) | GI50 (NCI-H226): 18.8 µM (inactive) | GI50 (OVCAR-8): 25.3 µM (inactive) | GI50 (SF-295): 38.2 µM (inactive) | GI50 (M14): 19.4 µM (inactive) | GI50 (Hs-578T): 37 µM (inactive) | GI50 (SW-620): 30.3 µM (inactive) | GI50 (Malme-3M): 30.7 µM (inactive) | GI50 (HCC 2998): 13.6 µM (inactive) | GI50 (OVCAR-3): 15.9 µM (inactive) | GI50 (CAKI-1): 22.3 µM (inactive) | GI50 (IGROV-1): 21.6 µM (inactive) | GI50 (SK-MEL-28): 25.9 µM (inactive) | GI50 (UO-31): 22.6 µM (inactive) | GI50 (NCI/ADR-RES): 29.5 µM (inactive) | GI50 (LOX IMVI): 20 µM (inactive) | GI50 (SK-MEL-5): 20.3 µM (inactive) | GI50 (DU-145): 36.7 µM (inactive) | GI50 (SF-539): 19.8 µM (inactive) | GI50 (A549): 24.9 µM (inactive) | GI50 (OVCAR-4): 32.3 µM (inactive) | GI50 (K562): 24.2 µM (inactive) | GI50 (786-0): 20.3 µM (inactive) | GI50 (KM12): 21.5 µM (inactive) | GI50 (SF-268): 27.5 µM (inactive) | GI50 (HCT-15): 17.7 µM | GI50 (UACC-257): 23.2 µM (inactive) | GI50 (ACHN): 27 µM (inactive) | GI50 (HL-60): 18.6 µM (inactive) | GI50 (OVCAR-5): 22.1 µM (inactive) | GI50 (NCI-H23): 18.6 µM (inactive) | GI50 (SNB-75): 39.6 µM (inactive) | GI50 (RPMI-8226): 9.2 µM (inactive) | GI50 (T47D): 40.7 µM (inactive) | GI50 (SK-OV-3): 24 µM (inactive)

From ChEMBL document CHEMBL1201862, “PubChem BioAssay data set” (2004)
